Patent publication US10874670B2, “Substituted fused heteroaromatic compounds as kinase inhibitors and the use thereof” (IMPACT THERAPEUTICS, INC., priority 2017, dated 2020)

What was measured:
[1] = system: human colon cancer cell SW620; test: MTT assay, growth of SW620 cells, compounds combined with CPT-11; assay type: cell-based; settings: Homo sapiens, SW-620, 120 h; combined with CPT-11 (205 nM medium), 5 days, MTT
Description: Inhibitory effects of N,N-dimethyl-3-(4-(1-(tetrahydro-2H-pyran-4-yl)-[1,2,4]triazolo[4,3-a]quinoxalin-8-yl)phenoxy)propan-1-amine and its Analogues Combined with CPT-11 on the Growth of Human Colon Cancer Cell SW620 were Determined by MTT Assay
SW620 cells were digested by trypsinase, centrifuged at 800 rpm for 5 minutes, the supernatant was discarded, resuspended with fresh medium (RPMI 1640 medium+10% FBS) and counted. The cells were seeded into 96-well cell culture plate with appropriate cell density and incubated overnight in a 37° C. 5% CO2 incubator. The stock solutions of the tested compound and the reference compound AZD0156 were serially diluted to 8 concentrations by DMSO at the ratios of 1:3 and 1:10, respectively, the first concentration was 10 μM or 1 μM, and the last concentration was negative control of DMSO (0 μM, the final concentration of DMSO was 1%). 5 μL of each concentration was added to 120 μL of medium (25 times diluted) and mixed by shaking. The overnight cells were taken and the culture medium was removed, 195 μL of fresh medium containing 205 nM CPT-11 was added to each well, and 5 μL of diluted medium containing the corresponding concentration of the tested sample was added respectively, and the culture plate was then placed in the 5% CO2 cell culture incubator at 37° C. for 5 days. After removing the original solution, 100 pt of fresh serum-free DMEM medium containing MTT (0.5 mg/mL) was added to each well, the culture was continued. After 4 hours, the original solution was removed, 100 μL of DMSO was added into each well, the 96-well plates were shaken away from light for 10 minutes and placed in a multi-function reader to read the absorbance at the wavelength of 552/630/690 nm. GraphPad Prism 6.0 was used to analyze the data. The inhibitory activity of compounds on cell proliferation was plotted based on cell viability and compound concentration. The IC50 value was fitted by a sigmoidal dose response curve equation Y=100/(1+10^(Log C−Log IC50)), where C was the concentration of compound.
Table 3 summarizes the inhibitory effects of compounds combined with CPT-11 on the growth of human colon cancer cell SW620 (IC50).

ATM enzyme (human) = ATM enzyme (human) (Homo sapiens, UniProt Q13315); test: ATM kinase assay (HTRF, GST-cMyc-p53 substrate); assay type: biochemical; settings: 0.5 h, read-out: Inh (%) of ATM kinase; for inhibition at 1 µM: C 1 μm (final concentration of compound); for inhibition at 0.01 µM: C 0.01 μm (final concentration of compound); for inhibition at 0.1 µM: C 0.1 μm (final concentration of compound)
Description: In Vitro Inhibition of ATM by N,N-dimethyl-3-(4-(1-(tetrahydro-2H-pyran-4-yl)-[1,2,4]triazolo[4,3-a]quinoxalin-8-yl)phenoxy)propan-1-amine and its Analogues was Determined by ATM Kinase Assay
The reaction was initiated by the addition of a Mg/ATP mixture and incubation for 30 minutes at room temperature, the reaction was quenched by the addition of a stop solution containing EDTA. Finally, the detection buffer containing the d2-labeled anti-GST monoclonal antibody and the europium-labeled anti-phospho p53 (Ser15) antibody was added. The plate was then read in time resolved fluorescence mode and the homogeneous time resolved fluorescence (HTRF) signal was determined according to the equation: HTRF=10000×(Em665nm/Em620nm). Each compound sample was repeated in duplicate. The experiment negative control was all components except of the ATM enzyme and the positive control contained all components. All reactions were quenched by adding EDTA.
ATM kinase inhibition was detected by using the method described above. The curve equation for calculating IC50 value is as follows:
[formula] • wherein, C is the concentration of compound and D is the slope factor.

Chain of ATM enzyme (human) (Q13315 whole entry): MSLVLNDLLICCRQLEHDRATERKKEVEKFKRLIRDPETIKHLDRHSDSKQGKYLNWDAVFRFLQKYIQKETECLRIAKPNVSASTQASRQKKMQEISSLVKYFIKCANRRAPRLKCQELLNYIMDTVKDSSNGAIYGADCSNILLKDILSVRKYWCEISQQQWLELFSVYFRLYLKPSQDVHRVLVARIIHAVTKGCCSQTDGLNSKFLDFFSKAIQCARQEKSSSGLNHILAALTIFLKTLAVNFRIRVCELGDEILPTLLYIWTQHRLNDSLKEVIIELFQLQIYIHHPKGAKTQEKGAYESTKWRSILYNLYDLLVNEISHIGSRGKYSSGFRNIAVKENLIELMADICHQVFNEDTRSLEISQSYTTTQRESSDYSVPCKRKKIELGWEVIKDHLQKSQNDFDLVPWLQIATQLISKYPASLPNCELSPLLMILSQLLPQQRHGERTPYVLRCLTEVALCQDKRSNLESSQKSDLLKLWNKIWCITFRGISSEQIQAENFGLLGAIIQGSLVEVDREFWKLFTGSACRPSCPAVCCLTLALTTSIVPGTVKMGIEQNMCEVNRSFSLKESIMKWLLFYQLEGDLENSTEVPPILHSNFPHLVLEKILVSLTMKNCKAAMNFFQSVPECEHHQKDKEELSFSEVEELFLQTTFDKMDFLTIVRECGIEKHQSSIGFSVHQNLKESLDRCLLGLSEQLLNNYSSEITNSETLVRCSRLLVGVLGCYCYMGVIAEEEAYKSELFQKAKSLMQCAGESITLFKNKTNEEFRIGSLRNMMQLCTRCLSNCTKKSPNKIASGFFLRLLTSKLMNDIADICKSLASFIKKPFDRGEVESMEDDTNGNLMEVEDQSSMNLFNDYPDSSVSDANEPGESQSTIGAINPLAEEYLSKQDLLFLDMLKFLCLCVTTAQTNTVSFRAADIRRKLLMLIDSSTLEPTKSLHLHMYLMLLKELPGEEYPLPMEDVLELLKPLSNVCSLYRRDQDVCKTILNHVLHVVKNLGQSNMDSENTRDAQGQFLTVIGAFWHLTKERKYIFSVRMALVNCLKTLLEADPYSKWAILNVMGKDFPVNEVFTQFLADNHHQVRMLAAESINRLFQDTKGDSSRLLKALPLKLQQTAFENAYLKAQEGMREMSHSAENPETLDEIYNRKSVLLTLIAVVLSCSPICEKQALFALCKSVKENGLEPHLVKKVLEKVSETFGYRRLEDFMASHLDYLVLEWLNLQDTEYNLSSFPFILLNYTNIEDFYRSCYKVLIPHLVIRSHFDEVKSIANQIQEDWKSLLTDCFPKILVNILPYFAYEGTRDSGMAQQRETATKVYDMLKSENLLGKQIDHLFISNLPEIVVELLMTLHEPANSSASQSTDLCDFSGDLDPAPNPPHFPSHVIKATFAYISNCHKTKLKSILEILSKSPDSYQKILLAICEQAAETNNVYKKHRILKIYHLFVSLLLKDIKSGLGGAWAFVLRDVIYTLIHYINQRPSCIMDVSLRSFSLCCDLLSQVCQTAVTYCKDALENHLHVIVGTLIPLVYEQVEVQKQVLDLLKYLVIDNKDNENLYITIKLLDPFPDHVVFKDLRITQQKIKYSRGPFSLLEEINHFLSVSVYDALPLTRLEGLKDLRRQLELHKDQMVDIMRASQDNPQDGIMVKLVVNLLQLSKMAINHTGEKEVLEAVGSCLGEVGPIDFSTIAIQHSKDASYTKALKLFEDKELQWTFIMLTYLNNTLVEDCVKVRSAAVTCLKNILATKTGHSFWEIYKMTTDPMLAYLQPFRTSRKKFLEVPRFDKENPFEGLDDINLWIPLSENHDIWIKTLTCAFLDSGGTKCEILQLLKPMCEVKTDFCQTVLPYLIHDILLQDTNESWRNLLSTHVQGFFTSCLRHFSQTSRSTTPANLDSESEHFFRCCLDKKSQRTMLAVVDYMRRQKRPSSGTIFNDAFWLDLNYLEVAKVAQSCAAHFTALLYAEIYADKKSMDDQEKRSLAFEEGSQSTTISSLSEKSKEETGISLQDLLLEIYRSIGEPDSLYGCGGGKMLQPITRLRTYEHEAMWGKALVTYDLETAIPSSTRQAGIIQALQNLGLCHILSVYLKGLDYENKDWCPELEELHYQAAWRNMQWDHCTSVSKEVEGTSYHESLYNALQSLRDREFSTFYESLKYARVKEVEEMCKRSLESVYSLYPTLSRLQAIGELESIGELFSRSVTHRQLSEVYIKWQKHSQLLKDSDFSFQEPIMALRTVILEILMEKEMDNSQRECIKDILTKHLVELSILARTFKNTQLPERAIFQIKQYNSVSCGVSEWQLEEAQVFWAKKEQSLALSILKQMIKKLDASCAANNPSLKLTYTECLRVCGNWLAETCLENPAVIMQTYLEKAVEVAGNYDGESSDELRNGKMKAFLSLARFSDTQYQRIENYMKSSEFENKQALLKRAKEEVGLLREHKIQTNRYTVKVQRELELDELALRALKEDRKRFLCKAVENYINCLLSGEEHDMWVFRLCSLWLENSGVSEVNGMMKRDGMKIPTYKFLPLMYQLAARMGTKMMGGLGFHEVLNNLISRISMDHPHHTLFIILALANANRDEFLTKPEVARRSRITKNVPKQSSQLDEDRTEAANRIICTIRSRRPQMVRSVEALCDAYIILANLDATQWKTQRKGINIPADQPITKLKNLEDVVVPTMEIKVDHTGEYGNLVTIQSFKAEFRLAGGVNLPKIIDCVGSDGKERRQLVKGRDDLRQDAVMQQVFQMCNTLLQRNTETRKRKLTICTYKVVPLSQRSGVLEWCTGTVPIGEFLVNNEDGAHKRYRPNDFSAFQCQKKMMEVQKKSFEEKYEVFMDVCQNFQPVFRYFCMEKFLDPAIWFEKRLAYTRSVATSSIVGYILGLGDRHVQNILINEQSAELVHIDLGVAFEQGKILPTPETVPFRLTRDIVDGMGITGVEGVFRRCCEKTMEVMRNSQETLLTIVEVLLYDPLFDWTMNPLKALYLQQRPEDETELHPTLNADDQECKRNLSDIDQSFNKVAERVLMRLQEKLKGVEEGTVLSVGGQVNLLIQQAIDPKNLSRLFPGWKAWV

SMILES	IC50 [1]	inhibition at 1 µM (ATM enzyme (human))	further results
CN(C)CCCOc1ccc(-c2cnc3ncc4nnc(C5CCOCC5)n4c3c2)cn1 [Example 1, N,N-dimethyl-3-((5-(1-(tetrahydro-2H-pyran-4-yl)pyrido[2,3-e][1,2,4]triazolo[4,3-a]pyrazin-8-yl)pyridin-2-yl)oxy)propan-1-amine]	> 100 µM		inhibition at 10 µM (ATM enzyme (human); C 10 μm (final concentration of compound)): 90%
CN(C)CCCOc1ccc(-c2cnc3ncc4nnc(C5CCOCC5)n4c3c2)cc1 [Example 2, N,N-dimethyl-3-(4-(1-(tetrahydro-2H-pyran-4-yl)pyrido[2,3-e][1,2,4]triazolo[4,3-a]pyrazin-8-yl)phenoxy)propan-1-amine]	> 100 µM	57%	
CN(C)CCCOc1ncc(-c2ccc3ncc4nnc(C5CCOCC5)n4c3c2)cn1 [Example 6, N,N-dimethyl-3-((5-(1-(tetrahydro-2H-pyran-4-yl)-[1,2,4]triazolo[4,3-a]quinoxalin-8-yl)pyrimidin-2-yl)oxy)propan-1-amine]	> 100 µM	57%	
CN(C)CCCOc1cnc(-c2ccc3ncc4nnc(C5CCOCC5)n4c3c2)nc1 [Example 7, N,N-dimethyl-3-((2-(1-(tetrahydro-2H-pyran-4-yl)-[1,2,4]triazolo[4,3-a]quinoxalin-8-yl)pyrimidin-5-yl)oxy)propan-1-amine]	3.1 µM	40%	
CN(C)CCCOc1cnc(-c2ccc3ncc4nnc(C5CCOCC5)n4c3c2)cn1 [Example 8, N,N-dimethyl-3-((5-(1-(tetrahydro-2H-pyran-4-yl)-[1,2,4]triazolo[4,3-a]quinoxalin-8-yl)pyrazin-2-yl)oxy)propan-1-amine]	3.3 µM	38%	
CN(C)CCOc1ccc(-c2ccc3ncc4nnc(C5CCOCC5)n4c3c2)cc1 [Example 9, N,N-dimethyl-2-(4-(1-(tetrahydro-2H-pyran-4-yl)-[1,2,4]triazolo[4,3-a]quinoxalin-8-yl)phenoxy)ethan-1-amine]	1.94 µM	72%	
CN(C)CCCNc1ccc(-c2ccc3ncc4nnc(C5CCOCC5)n4c3c2)cc1 [Example 10, N-(3-(dimethylamino)propyl)-4-(1-(tetrahydro-2H-pyran-4-yl)-[1,2,4]triazolo[4,3-a]quinoxalin-8-yl)aniline]	5.21 µM	85%	
CN1CCN(c2ccc(-c3ccc4ncc5nnc(C6CCOCC6)n5c4c3)cc2)CC1 [Example 13, 8-(4-(4-methylpiperazin-1-yl)phenyl)-1-(tetrahydro-2H-pyran-4-yl)-[1,2,4]triazolo[4,3-a]quinoxaline]	> 100 µM	93%	inhibition at 0.01 µM (ATM enzyme (human)): 8%; inhibition at 0.1 µM (ATM enzyme (human)): 49%
C[C@@H]1CN(c2ccc(-c3ccc4ncc5nnc(C6CCOCC6)n5c4c3)cc2)C[C@H](C)N1C [Example 14, 1-(tetrahydro-2H-pyran-4-yl)-8-(4-((3S,5R)-3,4,5-trimethylpiperazin-1-yl)phenyl)-[1,2,4]triazolo[4,3-a]quinoxaline]	> 100 µM	96%	inhibition at 0.01 µM (ATM enzyme (human)): 20%; inhibition at 0.1 µM (ATM enzyme (human)): 52%
CN(C)C1CCN(c2ccc(-c3ccc4ncc5nnc(C6CCOCC6)n5c4c3)cn2)CC1 [Example 15, N,N-dimethyl-1-(5-(1-(tetrahydro-2H-pyran-4-yl)-[1,2,4]triazolo[4,3-a]quinoxalin-8-yl)pyridin-2-yl)piperidin-4-amine]	0.485 µM	98%	inhibition at 0.01 µM (ATM enzyme (human)): 33%; inhibition at 0.1 µM (ATM enzyme (human)): 80%
C[C@@H]1CN(c2nnc3cnc4ccc(-c5ccc(OCCCN(C)C)nc5)cc4n23)C[C@H](C)N1C [Example 26, N,N-dimethyl-3-((5-(1-((3S,5R)-3,4,5-trimethylpiperazin-1-yl)-[1,2,4]triazolo[4,3-a]quinoxalin-8-yl)pyridin-2-yl)oxy)propan-1-amine]	0.057 µM		
CNC1CCN(c2ccc(-c3ccc4ncc5nnc(N6C[C@@H](C)N(C)[C@@H](C)C6)n5c4c3)cc2F)CC1 [Example 94, N-methyl-1-(2-fluoro-4-(1-((3S,5R)-3,4,5-trimethylpiperazin-1-yl)-[1,2,4]triazolo[4,3-a]quinoxalin-8-yl)phenyl)piperidin-4-amine]	0.013 µM		
CCNC1CCN(c2ccc(-c3ccc4ncc5nnc(N6C[C@@H](C)N(C)[C@@H](C)C6)n5c4c3)cc2F)CC1 [Example 96, N-ethyl-1-(2-fluoro-4-(1-((3S,5R)-3,4,5-trimethylpiperazin-1-yl)-[1,2,4]triazolo[4,3-a]quinoxalin-8-yl)phenyl)piperidin-4-amine]	0.015 µM		
C[C@@H]1CN(c2nnc3cnc4ccc(-c5ccc(OCCCN(C)C)c(C(F)(F)F)c5)cc4n23)C[C@H](C)O1 [Example 102, N,N-dimethyl-3-(2-(trifluoromethyl)-4-(1-((2S,6R)-2,6-dimethylmorpholino)-[1,2,4]triazolo[4,3-a]quinoxalin-8-yl)phenoxy)propan-1-amine]	0.0211 µM		
C[C@@H]1CN(c2nnc3cnc4ccc(-c5ccc(N6CCC(N(C)C)CC6)cc5)cc4n23)C[C@H](C)O1 [Example 103, 1-(4-(1-((2S,6R)-2,6-dimethylmorpholino)-[1,2,4]triazolo[4,3-a]quinoxalin-8-yl)phenyl)-N,N-dimethylpiperidin-4-amine]	0.176 µM		
C[C@@H]1CN(c2nnc3cnc4ccc(-c5ccc(N6CCC(N(C)C)CC6)c(F)c5)cc4n23)C[C@H](C)O1 [Example 104, 1-(4-(1-((2S,6R)-2,6-dimethylmorpholino)-[1,2,4]triazolo[4,3-a]quinoxalin-8-yl)-2-fluorophenyl)-N,N-dimethylpiperidin-4-amine]	0.0282 µM		
CN(C)CCCOc1ccc(-c2ccc3ncc4nnc(N5CCCCC5)n4c3c2)cc1C(F)(F)F [Example 111, N,N-dimethyl-3-(4-(1-(piperidin-1-yl)-[1,2,4]triazolo[4,3-a]quinoxalin-8-yl)-2-(trifluoromethyl)phenoxy)propan-1-amine]	0.0162 µM		
CN(C)C1CCN(c2ccc(-c3ccc4ncc5nnc(N6CCCCC6)n5c4c3)cc2F)CC1 [Example 112, 1-(2-fluoro-4-(1-(piperidin-1-yl)-[1,2,4]triazolo[4,3-a]quinoxalin-8-yl)phenyl)-N,N-dimethylpiperidin-4-amine]	0.0219 µM		
CNC1CCN(c2ccc(-c3ccc4ncc5nnc(N6C[C@@H](C)N(C)[C@@H](C)C6)n5c4n3)cc2F)CC1 [Example 117, 1-(2-fluoro-4-(9-((3S,5R)-3,4,5-trimethylpiperazin-1-yl)pyrido[3,2-e][1,2,4]triazolo[4,3-a]pyrazin-2-yl)phenyl)-N-methylpiperidin-4-amine]	0.0475 µM		
CCNC1CCN(c2ccc(-c3ccc4ncc5nnc(N6C[C@@H](C)N(C)[C@@H](C)C6)n5c4n3)cc2F)CC1 [Example 119, N-ethyl-1-(2-fluoro-4-(9-((3S,5R)-3,4,5-trimethylpiperazin-1-yl)pyrido[3,2-e][1,2,4]triazolo[4,3-a]pyrazin-2-yl)phenyl)piperidin-4-amine]	0.0431 µM		
CN(C)CCCOc1ccc(-c2ccc3ncc4nnc(C5CCOCC5)n4c3n2)cc1F [Example 139, 3-(2-fluoro-4-(9-(tetrahydro-2H-pyran-4-yl)pyrido[3,2-e][1,2,4]triazolo[4,3-a]pyrazin-2-yl)phenoxy)-N,N-dimethylpropan-1-amine]	0.262 µM		
CN(C)CCCOc1ccc(-c2ccc3ncc4nnc(C5CCOCC5)n4c3n2)cc1Cl [Example 140, 3-(2-chloro-4-(9-(tetrahydro-2H-pyran-4-yl)pyrido[3,2-e][1,2,4]triazolo[4,3-a]pyrazin-2-yl)phenoxy)-N,N-dimethylpropan-1-amine]	0.213 µM		
